Patent US8802597B2, “Herbicidal pyrimidines” (E I du Pont de Nemours and Company, priority 2003, dated 2014)
Where two headings read alike, the source gives them in different places.

What was measured:
Type in all cases: in vivo
[1] = test system: Surinam grass (Brachiaria decumbens); assay: Test B pre/postemergence; conditions: Urochloa decumbens; for pest or weed control at 125 g/ha: 125 g ai/ha; for pest or weed control at 500 g/ha: 500 g ai/ha
Procedure, shortened: (§1)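 Scores reflect visual comparison with untreated controls, where 0 means no effect and 100 complete control. Plants stayed 13 to 15 days in the greenhouse after pre- or postemergence treatment with compounds carried in a non-phytotoxic solvent and surfactant.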

[2] = test system: barnyardgrass (Echinochloa crus-galli); assay: Test B pre/postemergence; conditions: Echinochloa crus-galli; for pest or weed control at 125 g/ha: 125 g ai/ha; for pest or weed control at 500 g/ha: 500 g ai/ha
Procedure, shortened: as §1

[3] = test system: cocklebur (Xanthium strumarium); assay: Test B pre/postemergence; conditions: Xanthium strumarium; for pest or weed control at 125 g/ha: 125 g ai/ha; for pest or weed control at 500 g/ha: 500 g ai/ha
Procedure, shortened: as §1

corn (Zea mays) = assay: Test B pre/postemergence; conditions: Zea mays
Procedure, shortened: as §1

[4] = test system: crabgrass (Digitaria sanguinalis); assay: Test B pre/postemergence; conditions: Digitaria sanguinalis; for pest or weed control at 125 g/ha: 125 g ai/ha; for pest or weed control at 500 g/ha: 500 g ai/ha
Procedure, shortened: as §1

[5] = test system: giant foxtail (Setaria faberii); assay: Test B pre/postemergence; conditions: Setaria faberi; for pest or weed control at 125 g/ha: 125 g ai/ha; for pest or weed control at 500 g/ha: 500 g ai/ha
Procedure, shortened: as §1

[6] = test system: lambsquarters (Chenopodium album); assay: Test B pre/postemergence; conditions: Chenopodium album; for pest or weed control at 125 g/ha: 125 g ai/ha; for pest or weed control at 500 g/ha: 500 g ai/ha
Procedure, shortened: as §1

[7] = test system: morningglory (Ipomoea coccinea); assay: Test B pre/postemergence; conditions: Ipomoea; for pest or weed control at 125 g/ha: 125 g ai/ha; for pest or weed control at 500 g/ha: 500 g ai/ha
Procedure, shortened: as §1

[8] = test system: pigweed (Amaranthus retroflexus); assay: Test B pre/postemergence; conditions: Amaranthus retroflexus; for pest or weed control at 125 g/ha: 125 g ai/ha; for pest or weed control at 500 g/ha: 500 g ai/ha
Procedure, shortened: as §1

[9] = test system: velvetleaf (Abutilon theophrasti); assay: Test B pre/postemergence; conditions: Abutilon theophrasti; for pest or weed control at 125 g/ha: 125 g ai/ha; for pest or weed control at 500 g/ha: 500 g ai/ha
Procedure, shortened: as §1

[10] = test system: wheat (Triticum aestivum); assay: Test B pre/postemergence; conditions: Triticum aestivum; for plant injury at 125 g/ha: 125 g ai/ha; for plant injury at 500 g/ha: 500 g ai/ha
Procedure, shortened: as §1

[11] = test system: blackgrass (Alopecurus myosuroides); assay: Test B postemergence; conditions: Alopecurus myosuroides, post-emergence
Procedure, shortened: as §1

wild oat (Avena fatua) = assay: Test B postemergence; conditions: Avena fatua, post-emergence
Procedure, shortened: as §1

[12] = test system: barnyardgrass (Echinochloa crus-galli); assay: Test B flooded paddy test; conditions: Echinochloa crus-galli, Flood, 1000 g ai/ha; scale 0 (no effect) to 100 (complete control); read-out: Plant response rating, Barnyardgrass
Procedure, shortened: (§2)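 Visual injury scoring (0 = no effect, 100 = complete control) versus controls made 13 to 15 days after treatment in the greenhouse. Test species were grown in flooded paddy to the 2-leaf stage: rice, barnyardgrass, umbrella sedge, duck salad.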

[13] = test system: duck salad (Heteranthera limosa); assay: Test B flooded paddy test; conditions: Heteranthera limosa, Flood, 1000 g ai/ha; scale 0 to 100; read-out: Plant response rating, Ducksalad
Procedure, shortened: as §2

rice (Oryza sativa) = assay: Test B flooded paddy test; conditions: Oryza sativa, Flood, 1000 g ai/ha; scale 0 to 100; read-out: Plant response rating, Rice
Procedure, shortened: as §2

[14] = test system: umbrella sedge (Cyperus difformis); assay: Test B flooded paddy test; conditions: Cyperus difformis, Flood, 1000 g ai/ha; scale 0 to 100; read-out: Plant response rating, Sedge, Umbrella
Procedure, shortened: as §2

COC(=O)c1nc(-c2ccccc2)nc(N)c1Br [Compound 23]
pest or weed control at 125 g/ha ([1]; post-emergence, Postemergence, scale 0 to 100 (0 no effect, 100 complete control), read-out: Surinam Grass plant response rating): 0%
pest or weed control at 500 g/ha ([1]; post-emergence, Postemergence, scale 0 to 100, read-out: Plant response rating, Surinam Grass): 10%
pest or weed control at 125 g/ha ([1]; pre-emergence, Preemergence, scale 0 to 100 (0 no effect, 100 complete control), read-out: Plant response rating, Surinam Grass): 0%
pest or weed control at 500 g/ha ([1]; pre-emergence, Preemergence, scale 0 to 100 (0 no effect, 100 complete control), read-out: Surinam Grass plant response rating): 0%
pest or weed control at 125 g/ha ([2]; post-emergence, Postemergence, scale 0 to 100 (0 no effect, 100 complete control), read-out: Barnyardgrass plant response rating): 0%
pest or weed control at 500 g/ha ([2]; post-emergence, Postemergence, scale 0 to 100, read-out: Plant response rating, Barnyardgrass): 0%
pest or weed control at 125 g/ha ([2]; pre-emergence, Preemergence, scale 0 to 100 (0 no effect, 100 complete control), read-out: Plant response rating, Barnyardgrass): 0%
pest or weed control at 500 g/ha ([2]; pre-emergence, Preemergence, scale 0 to 100 (0 no effect, 100 complete control), read-out: Barnyardgrass plant response rating): 0%
pest or weed control at 125 g/ha ([3]; post-emergence, Postemergence, scale 0 to 100 (0 no effect, 100 complete control), read-out: Cocklebur plant response rating): 30%
pest or weed control at 500 g/ha ([3]; post-emergence, Postemergence, scale 0 to 100, read-out: Plant response rating, Cocklebur): 90%
pest or weed control at 125 g/ha ([3]; pre-emergence, Preemergence, scale 0 to 100 (0 no effect, 100 complete control), read-out: Plant response rating, Cocklebur): 0%
pest or weed control at 500 g/ha ([3]; pre-emergence, Preemergence, scale 0 to 100 (0 no effect, 100 complete control), read-out: Cocklebur plant response rating): 10%
plant injury at 125 g/ha (corn (Zea mays); post-emergence, Postemergence, 125 g ai/ha, scale 0 to 100 (0 no effect, 100 complete control), read-out: Corn plant response rating): 0%
Corn plant response rating (crop injury, 0 = no effect, 100 = complete kill) at 500 g/ha (corn (Zea mays); post-emergence, Postemergence, 500 g ai/ha, scale 0 to 100): 0%
Corn plant response rating (crop injury, 0 = no effect, 100 = complete kill) at 125 g/ha (corn (Zea mays); pre-emergence, Preemergence, 125 g ai/ha, scale 0 to 100 (0 no effect, 100 complete control)): 0%
plant injury at 500 g/ha (corn (Zea mays); pre-emergence, Preemergence, 500 g ai/ha, scale 0 to 100 (0 no effect, 100 complete control), read-out: Corn plant response rating): 0%
pest or weed control at 125 g/ha ([4]; post-emergence, Postemergence, scale 0 to 100 (0 no effect, 100 complete control), read-out: Crabgrass plant response rating): 0%
pest or weed control at 500 g/ha ([4]; post-emergence, Postemergence, scale 0 to 100, read-out: Plant response rating, Crabgrass): 0%
pest or weed control at 125 g/ha ([4]; pre-emergence, Preemergence, scale 0 to 100 (0 no effect, 100 complete control), read-out: Plant response rating, Crabgrass): 0%
pest or weed control at 500 g/ha ([4]; pre-emergence, Preemergence, scale 0 to 100 (0 no effect, 100 complete control), read-out: Crabgrass plant response rating): 0%
pest or weed control at 125 g/ha ([5]; post-emergence, Postemergence, scale 0 to 100 (0 no effect, 100 complete control), read-out: Foxtail, Giant plant response rating): 0%
pest or weed control at 500 g/ha ([5]; post-emergence, Postemergence, scale 0 to 100, read-out: Plant response rating, Foxtail, Giant): 10%
pest or weed control at 125 g/ha ([5]; pre-emergence, Preemergence, scale 0 to 100 (0 no effect, 100 complete control), read-out: Plant response rating, Foxtail, Giant): 0%
pest or weed control at 500 g/ha ([5]; pre-emergence, Preemergence, scale 0 to 100 (0 no effect, 100 complete control), read-out: Foxtail, Giant plant response rating): 0%
pest or weed control at 125 g/ha ([6]; post-emergence, Postemergence, scale 0 to 100 (0 no effect, 100 complete control), read-out: Lambsquarters plant response rating): 70%
pest or weed control at 500 g/ha ([6]; post-emergence, Postemergence, scale 0 to 100, read-out: Plant response rating, Lambsquarters): 80%
pest or weed control at 125 g/ha ([6]; pre-emergence, Preemergence, scale 0 to 100 (0 no effect, 100 complete control), read-out: Plant response rating, Lambsquarters): 0%
pest or weed control at 500 g/ha ([6]; pre-emergence, Preemergence, scale 0 to 100 (0 no effect, 100 complete control), read-out: Lambsquarters plant response rating): 30%
pest or weed control at 125 g/ha ([7]; post-emergence, Postemergence, scale 0 to 100 (0 no effect, 100 complete control), read-out: Morningglory plant response rating): 40%
pest or weed control at 500 g/ha ([7]; post-emergence, Postemergence, scale 0 to 100, read-out: Plant response rating, Morningglory): 70%
pest or weed control at 125 g/ha ([7]; pre-emergence, Preemergence, scale 0 to 100 (0 no effect, 100 complete control), read-out: Plant response rating, Morningglory): 0%
pest or weed control at 500 g/ha ([7]; pre-emergence, Preemergence, scale 0 to 100 (0 no effect, 100 complete control), read-out: Morningglory plant response rating): 10%
pest or weed control at 125 g/ha ([8]; post-emergence, Postemergence, scale 0 to 100 (0 no effect, 100 complete control), read-out: Pigweed plant response rating): 30%
pest or weed control at 500 g/ha ([8]; post-emergence, Postemergence, scale 0 to 100, read-out: Plant response rating, Pigweed): 70%
pest or weed control at 125 g/ha ([8]; pre-emergence, Preemergence, scale 0 to 100 (0 no effect, 100 complete control), read-out: Plant response rating, Pigweed): 0%
pest or weed control at 500 g/ha ([8]; pre-emergence, Preemergence, scale 0 to 100 (0 no effect, 100 complete control), read-out: Pigweed plant response rating): 20%
pest or weed control at 125 g/ha ([9]; post-emergence, Postemergence, scale 0 to 100 (0 no effect, 100 complete control), read-out: Velvetleaf plant response rating): 40%
pest or weed control at 500 g/ha ([9]; post-emergence, Postemergence, scale 0 to 100, read-out: Plant response rating, Velvetleaf): 70%
pest or weed control at 125 g/ha ([9]; pre-emergence, Preemergence, scale 0 to 100 (0 no effect, 100 complete control), read-out: Plant response rating, Velvetleaf): 0%
pest or weed control at 500 g/ha ([9]; pre-emergence, Preemergence, scale 0 to 100 (0 no effect, 100 complete control), read-out: Velvetleaf plant response rating): 20%
plant injury at 125 g/ha ([10]; post-emergence, Postemergence, scale 0 to 100 (0 no effect, 100 complete control), read-out: Wheat plant response rating): 0%
plant injury at 500 g/ha ([10]; post-emergence, Postemergence, scale 0 to 100, read-out: Plant response rating, Wheat): 20%
plant injury at 125 g/ha ([10]; pre-emergence, Preemergence, scale 0 to 100 (0 no effect, 100 complete control), read-out: Plant response rating, Wheat): 0%
plant injury at 500 g/ha ([10]; pre-emergence, Preemergence, scale 0 to 100 (0 no effect, 100 complete control), read-out: Wheat plant response rating): 0%
pest or weed control at 125 g/ha ([11]; 125 g ai/ha, scale 0 to 100 (0 no effect, 100 complete control), read-out: Blackgrass plant response rating): 0%
pest or weed control at 500 g/ha ([11]; 500 g ai/ha, scale 0 to 100, read-out: Plant response rating, Blackgrass): 10%
pest or weed control at 125 g/ha (wild oat (Avena fatua); 125 g ai/ha, scale 0 to 100 (0 no effect, 100 complete control), read-out: Oat, Wild plant response rating): 10%
pest or weed control at 500 g/ha (wild oat (Avena fatua); 500 g ai/ha, scale 0 to 100, read-out: Plant response rating, Oat, Wild): 10%
pest or weed control at 1000 g/ha [12]: 0%
pest or weed control at 1000 g/ha [13]: 30%
plant injury at 1000 g/ha (rice (Oryza sativa)): 0%
pest or weed control at 1000 g/ha [14]: 0%
